Article PMC5263201, “GABAA receptor occupancy by subtype selective GABAAα2,3 modulators: PET studies in humans” (Psychopharmacology, 2016)
“And” between values parts separate entries of the source, which are not always exact repeats. Equal values may be shown once. Read-outs that look alike come from different tables or passages of the source.

Experiments:
[1] = parameters: method as in Chen et al. 2014, 2015; conditions: neurophysiological test battery; ref Chen et al. 2014, 2015; cited from earlier work
[2] = system: approximately 160 different ligand binding assays; experiment: Battery of approximately 160 different ligand binding assays at 10 μM; conditions: active = ≥50% inhibition with an IC50 <1µM
[3] = system: GABAA receptors (benzodiazepine binding site); experiment: PET with [11C]flumazenil (HRRT): GABAA receptor occupancy; assay type: in vivo, human; conditions: for Occupancy (%) OC: occipital cortex; for Occupancy (%) OC / Occupancy (%) AMG / Occupancy (%) CER / Occupancy (%) PUT: 1 h after drug administration; for Occupancy (%) AMG: amygdala; for Occupancy (%) CER: cerebellum; for Occupancy (%) PUT: putamen
Method: Two separate open-label phase I PET studies were conducted in 2008–2009.
The initial study design included two sequential panels, with two subjects in each. The first panel was intended to obtain initial receptor occupancy values, to be used for dose selection in the second panel. […] The studies followed an adaptive design, i.e., doses and PET measurements were adjusted depending on the results of preceding measurements. […] To optimize quantification of the relationship between AZ6280 exposure and receptor occupancy, the number of subjects with the highest 40 mg dose was increased (Fig. 1).
The head of the subject was fixed using individual plaster helmet. A sterile physiological phosphate buffer (pH 7.4) solution containing [^11C]flumazenil was injected intravenously as a bolus during 2 s, immediately followed by flush with 10 ml saline. The injected radioactivity for [^11C]flumazenil was in the range of 330–350 MBq, (340 (9) MBq, mean, SD) in the study 1 and in the range of 317–363 MBq (335 (16) MBq) in the study 2. The specific radioactivity of the radioligand at time of injection ranged from 310 to 1465 GBq/μmol (730 (414) GBq/μmol, mean, SD) and from 464 to 1879 GBq/μmol (977 (424) GBq/μmol, mean, SD), for study 1 and study 2, respectively.
PET examinations were performed over 63 min (HRRT; Siemens/CTI). List mode data were reconstructed using the ordinary Poisson 3D ordered subset estimation maximization algorithm, with 10 iterations and 16 subsets including modeling of the point spread function (Varrone et al. [2009]) into a 4D PET image containing 33 consecutive time frames (9 × 10 s, 2 × 15 s, 3 × 20 s, 4 × 30 s, 4 × 60 s, 4 × 180 s, 7 × 360 s) with a 3D array of 256 × 256 × 207 voxels having a size of 1.22 × 1.22 × 1.22 mm.
The anatomical brain regions were delineated manually on the MR images using in-house image analysis software. The regions included cortical and striatal subregions, thalamus, cerebellum, limbic regions, pons, and whole brain. The following four regions were selected in the final analysis: The occipital cortex and cerebellum were chosen because of the highest GABAA receptor binding by [^11C]flumazenil and good imaging statistics and preferential distribution of α1/α2 receptor subtypes; the amygdala was chosen because of its role in the brain circuits involved in anxiety and putamen for preferential α1/α2/α3 versus α5 receptor subtypes (Lingford-Hughes et al. [2002]; Fatemi et al. [2013]; Waldvogel and Faull [2015]). For the pons, the ROI was drawn on horizontal projection on the six central slices. […] The concentration of radioactivity in each ROI, calculated for each sequential time frame and corrected for ^11C decay, was plotted versus time (TACs).
An index of neuronal GABAA receptor density or binding potential (BPND) was calculated using the simplified reference tissue model (Lammertsma and Hume [1996]) and pons as a reference region. The calculated receptor occupancy (%) was then correlated to drug exposure according to the following equation:1 Occupancy=Occmax×Cav,PET/Ki,plasma+Cav,PET
where Occmax is the maximal occupancy induced by drug, C av,PET is the total drug plasma concentration, and K i,plasma is the inhibition constant corresponding to the drug plasma concentration required for half-maximum receptor occupancy. Non-linear least squares curve fitting of the relationship between drug plasma concentration and receptor occupancy was performed using Matlab R2007b (http://de.mathworks.com). Regional data were fitted simultaneously to obtain a single estimate of K i,plasma and regionally different estimates of Occmax. Best fit estimate and confidence interval (95% CI) were obtained on the logarithmic scale.

human MT1 receptor = human MT1 receptor (Homo sapiens, UniProt P48039); experiment: MT1 receptor GTPγS studies; assay type: biochemical
Sequence of human MT1 receptor (P48039 whole entry): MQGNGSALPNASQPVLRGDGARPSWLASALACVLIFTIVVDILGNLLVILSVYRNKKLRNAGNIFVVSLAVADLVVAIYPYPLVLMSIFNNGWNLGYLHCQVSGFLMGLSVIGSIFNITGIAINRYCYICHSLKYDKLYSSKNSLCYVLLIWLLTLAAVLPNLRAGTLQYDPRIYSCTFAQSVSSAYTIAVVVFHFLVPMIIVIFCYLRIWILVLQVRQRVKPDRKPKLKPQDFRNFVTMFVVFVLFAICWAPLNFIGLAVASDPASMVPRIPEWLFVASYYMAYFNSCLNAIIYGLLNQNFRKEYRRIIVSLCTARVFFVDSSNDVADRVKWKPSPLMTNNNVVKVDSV

[4] = cited from earlier work
[5] = Plasma pharmacokinetics after single oral doses in the PET studies; assay type: in vivo, human; conditions: for C av,PET: average plasma concentration at time of PET
Method: Venous blood samples for determination of drug plasma concentrations were collected at approximately 15 min before [^11C]flumazenil injection and at 15 and 30 min and 3, 4, 6, 8, 10, 12, 16, 24, 36, and 48 h after drug administration, including three samples during PET measurement, at 1, 1.30, and 2 h after drug administration.
Calculations of the pharmacokinetic parameters included the maximum plasma concentration (C max), the time to the maximum plasma concentration (T max), and the average drug plasma concentration during the PET measurement (C av,PET) (division of the partial area corresponding to the start and end times of PET assessment, AUCPET, by the duration of the PET measurement). The pharmacokinetic calculations were performed using non-compartmental analysis using WinNonlin™, Pharsight Corporation.

[6] = Safety and tolerability in the PET studies; assay type: in vivo, human
Excerpt: Safety and tolerability assessments included records of adverse events, vital signs (blood pressure, heart rate), Allen’s test, ECG, clinical chemistry, hematology assessments, and urinalysis.

[7] = Brain exposure in animals; assay type: in vivo
[8] = AZD6280 5 to 40 mg single oral doses

SMILES: CCCNC(=O)c1nnc2c(-c3cc(OC)ccc3OC)cccc2c1N [AZD6280]
- receptor occupancy up to which no cognitive or hypnotic side effects were observed [1]: up to 60%
- activity in the battery of ligand binding assays [2]: only assays in which either compound was active were the melatonin Type 1 and Type 2 receptors
- receptor occupancy at the maximum tolerated dose ([3]; 40 mg AZD6280, cortex and cerebellum): over 60%
- Occupancy (%) OC ([3]; AZD6280 single oral dose 5 mg): 11% and 7%
- Occupancy (%) AMG ([3]; AZD6280 single oral dose 12 mg): −8%
- Occupancy (%) CER ([3]; AZD6280 single oral dose 12 mg): 25%
- Occupancy (%) OC ([3]; AZD6280 single oral dose 12 mg): 17%
- Occupancy (%) PUT ([3]; AZD6280 single oral dose 12 mg): 0%
- Occupancy (%) AMG ([3]; AZD6280 single oral dose 20 mg): 20%
- Occupancy (%) CER ([3]; AZD6280 single oral dose 20 mg): 65%
- Occupancy (%) OC ([3]; AZD6280 single oral dose 20 mg): 60%
- Occupancy (%) PUT ([3]; AZD6280 single oral dose 20 mg): 32%
- Occupancy (%) AMG ([3]; AZD6280 single oral dose 30 mg): 9% and 5%
- Occupancy (%) CER ([3]; AZD6280 single oral dose 30 mg): 50% and 59%
- Occupancy (%) OC ([3]; AZD6280 single oral dose 30 mg): 39% and 43%
- Occupancy (%) PUT ([3]; AZD6280 single oral dose 30 mg): 16% and 14%
- Occupancy (%) CER ([3]; AZD6280 single oral dose 40 mg): 69% and 61% and 62% and 60%
- Occupancy (%) OC ([3]; AZD6280 single oral dose 40 mg): 50% and 52% and 62% and 53% and 36%
- Receptor occupancy (RO) ([3]; at 40mg, MTD, present study): 60-70%
- Ki ([3]; read-out: K i,plasma (plasma concentration required for 50% receptor occupancy), hyperbolic fit of occupancy vs C av,PET, regional data fitted simultaneously): 440 nM
- EC50 (human MT1 receptor): 19 nM
- Emax (human MT1 receptor): 90%
- sedation scores in VAS alertness scale compared to placebo ([4]; 1 h post-dose, dose ≥20 mg, ref AZ data on file): numerically higher sedation scores
- correct answers on DSST ([4]; 2 h after administration, dose ≥20 mg, ref AZ data on file): lower mean correct answers
- relationship between dose and alertness or cognitive performance ([4]; VAS alertness-sedation, Modified Wilson Sedation Scale, DSST, ref NCT00681317 and NCT00681915): no significant relationship
- T max ([5]; AZD6280 single oral dose 5 mg, individual subjects): 108 min
- Cmax ([5]; AZD6280 single oral dose 5 mg, individual subjects, read-out: C max): 179 nM and 77.2 nM
- C av,PET ([5]; AZD6280 single oral dose 12 mg): 204.68 nM
- C av,PET ([5]; AZD6280 single oral dose 20 mg): 592.22 nM
- C av,PET ([5]; AZD6280 single oral dose 30 mg): 513.07 nM and 676.82 nM
- T max ([5]; AZD6280 single oral dose 30 mg, individual subjects): 30 min
- Cmax ([5]; AZD6280 single oral dose 30 mg, individual subjects, read-out: C max): 731 nM
- T max ([5]; AZD6280 single oral dose 40 mg, individual subjects): 30 min and 36 min
- Cmax ([5]; AZD6280 single oral dose 40 mg, individual subjects, read-out: C max): 1250 nM and 1500 nM and 439 nM and 1510 nM
- Cmax ([5]; human, plasma, oral, range over all doses and subjects, read-out: range for peak exposures, Cmax): 28.3 to 555 ng/mL
- Tmax ([5]; human, plasma, po, 5 mg, AZD6280 single oral dose 5 mg, individual subjects): 60 min
- Tmax ([5]; human, plasma, po, 12 mg, AZD6280 single oral dose 12 mg, individual subject): 54 min
- Cmax ([5]; human, plasma, po, 12 mg, AZD6280 single oral dose 12 mg, individual subject, read-out: C max): 249 nM
- Tmax ([5]; human, plasma, po, 20 mg, AZD6280 single oral dose 20 mg, individual subject): 96 min
- Cmax ([5]; human, plasma, po, 20 mg, AZD6280 single oral dose 20 mg, individual subject, read-out: C max): 677 nM
- Cmax ([5]; human, plasma, po, 30 mg, AZD6280 single oral dose 30 mg, individual subjects, read-out: C max): 729 nM
- most common AEs: dizziness [6, 8]: four of eight subjects
- most common AEs: feeling drunk [6, 8]: two out of eight subjects
- receptor occupancy at the doses/exposure at which adverse events were reported ([6]; AZD7325 5, 20 and 30 mg, AZD6280 20 mg and above): > 60%
- high receptor occupancy reached without obvious sedative effects ([6]; PET studies): > 60%
- doses at which AEs were reported ([6]; not at 5 and 12 mg dose): ≥ 20 mg
- brain exposure [7]: good brain exposure
